{"source": "paper PMC6321136", "about": "“Combined In Vitro Studies and in Silico Target Fishing for the Evaluation of the Biological Activities of Diphylleia cymosa and Podophyllum hexandrum” (Molecules, 2018)", "key": {"[1]": {"biological_target": "T1, acetylcholinesterase enzyme (Electropardus electricous type VI-S) (Electrophorus electricus, UniProt O42275)", "T1 construct": "purchased Sigma-Aldrich, St. Louis, MO, USA type VI-S (catalogue number not given)", "T1 sequence (O42275 24-633)": "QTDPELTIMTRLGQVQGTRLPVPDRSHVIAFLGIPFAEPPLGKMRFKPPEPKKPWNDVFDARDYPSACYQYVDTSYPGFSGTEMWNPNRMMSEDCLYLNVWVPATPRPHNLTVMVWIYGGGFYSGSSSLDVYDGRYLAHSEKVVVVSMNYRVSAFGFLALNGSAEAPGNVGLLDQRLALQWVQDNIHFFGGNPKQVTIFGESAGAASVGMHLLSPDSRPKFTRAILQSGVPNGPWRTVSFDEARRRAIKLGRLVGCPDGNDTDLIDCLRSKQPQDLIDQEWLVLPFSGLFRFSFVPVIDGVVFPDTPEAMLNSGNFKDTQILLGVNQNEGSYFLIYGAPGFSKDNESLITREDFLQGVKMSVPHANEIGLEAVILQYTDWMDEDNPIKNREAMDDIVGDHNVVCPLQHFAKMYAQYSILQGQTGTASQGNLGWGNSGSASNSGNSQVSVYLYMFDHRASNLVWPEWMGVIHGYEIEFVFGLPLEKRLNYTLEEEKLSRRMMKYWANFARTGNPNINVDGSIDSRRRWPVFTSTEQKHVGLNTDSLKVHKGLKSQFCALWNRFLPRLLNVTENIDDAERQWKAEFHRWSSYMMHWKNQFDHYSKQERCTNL", "experiment": "AChE bioautographic assay (TLC)", "type": "biochemical", "parameters": "key: -: not active; +: slight inhibition; ++++: strong inhibition", "conditions": "intensity of white bands", "procedure": "The bioautographic assay was performed by thin layer chromatography (TLC) according to the method proposed by Marston, Kissling and Hostettman. The extracts were solubilized in methanol (Merck) at 20 mg/mL, and a portion of 10 μL of this solution was applied on a TLC plate (silica gel 60 F254, Merck, Darmstadt, Germany), which was eluted with CHCl3:MeOH (9:1). The acetylcholinesterase enzyme (Electropardus electricous type VI-S, Sigma-Aldrich, St. Louis, MO, USA) solution was prepared by diluting 1 KU of the enzyme in 30 mL of Tris/HCl buffer, pH 7.8, with the addition of 30 mg of bovine serum albumin (BSA). The enzyme solution was sprayed on the TLC plate and incubated in a humid chamber at 37 °C for 20 min. The substrate solution was prepared using 1-naphthyl acetate (2.5 mg/mL) and Fast Blue B salt (2.5 mg/mL), and sprayed on the TLC plate after the incubation period. […] The result was expressed by the intensity of the white bands observed."}, "[2]": {"biological_target": "T2, AChE from Electropardus electricous type VI-S (Electrophorus electricus, UniProt O42275)", "T2 construct": "purchased Sigma-Aldrich, St. Louis, MO, USA type VI-S (catalogue number not given)", "T2 sequence (O42275 24-633)": "as above", "experiment": "AChE inhibition microplate assay (Ellman)", "type": "biochemical", "conditions": "400 μg/mL; read-out: Inhibition of AChE Microplate (%I)", "procedure": "AChE inhibition assay was performed on a 96-well microplate according to Ellman’s method with adaptations. Initially, the extracts were solubilized on MeOH, at 20 mg/mL, and diluted to 4 mg/mL using Tris/HCl buffer solution (50 mM, pH 8.0). A portion of 25 µL of the samples (4 mg/mL) were added to the wells of the microplate, as well as 50 μL of 0.1% BSA solution in Tris/HCl Buffe (pH 8.0), 125 μL of DTNB in Tris/HCl (3 mM) containing NaCl (10 mM) and MgCl2 (20 mM). Subsequently, 25 μL of the ATCI aqueous solution (15 mM) was added to all wells. Then, a background reading was performed at 405 nm using microplate reader (Multiskan Go, Thermo Scientific, Whaltham, MA, USA). The enzymatic reaction was initiated after the addition of 25 µL of AChE solution (AChE from Electropardus electricous type VI-S, 0.2 U/mL, Sigma-Aldrich, St. Louis, MO, USA) in Tris/HCl buffer (50 mM, pH 8.0) containing 0.1% BSA. The kinetic cycle was performed in a period of 25 min, with readings at 5 min intervals, at 405 nm. Physostigmine (Eserine, Sigma, St. Louis, MO, USA) was employed as the positive control. […] The assay was performed in triplicate and the % of inhibition (%I) was calculated according to the following equation: %I = [(a − b)/a] × 100, where a = ΔA/min of control; b = ΔA/min of test sample; ΔA = change in absorbance between time x and time zero. […]"}, "[3]": {"experiment": "Thiobarbituric acid reactive substances (TBARS) assay", "parameters": "species or system bovine", "procedure": "The evaluation of antioxidant activity using the TBARS assay, with adaptations. Briefly, the samples were solubilized in methanol (50.0 to 31.25 μg/mL) and a portion of 25 μL of each extract solution was added to 10 mL test tubes in triplicate (two reaction tubes and one control). The tubes corresponding to the blank, negative and positive controls were prepared by adding 25 μL of deionized water, MeOH or propylgalate (Sigma, St. Louis, MO, USA, 0.1 mM), respectively. The phospholipid liposomes were prepared using bovine brain extract type VII (Sigma Aldrich, St. Louis, MO, USA, 10 mg/mL) in phosphate buffered saline (PBS) solution. The suspension was subjected to an ultrasonic bath until the formation of the liposomes. […] The butanolic phase was removed and transferred to a 96-well microplate, and the absorbance was recorded on a Multiskan Go microplate reader (Thermo Scientific, Whaltham, MA, USA) at 532 nm. The percentage of inhibition (%I) of lipid peroxidation was calculated as: %I = ((AC − AS)/AC) × 100 where AC is the absorbance of control, AS is the absorbance of samples. Assays were performed in triplicate and IC50 values were determined by non-linear regression using GraphPad Prism, version 6.0 (GraphPad Software, San Diego, CA, USA). […]"}, "[4]": {"experiment": "DPPH radical scavenger activity", "procedure": "The evaluation of the antioxidant activity using the 2,2-diphenyl-1-picrylhydrazyl radical (DPPH) was performed according to the method proposed by Mensor et al., with adaptations. The samples were dissolved in MeOH at concentrations ranging from 1.0 to 200 μg/mL. A portion of 250 μL of each sample was added to a 96-well microplate. MeOH and pyrogallol (50 µg/mL) were employed as negative and positive controls, respectively. Then, 100 μL of either MeOH (blank wells) or DPPH solution (120 μg/mL, reaction wells) was added to the microplate. The reading was performed on a microplate reader (EL808IU-Biotek model, Biotek, Winooski, VT, USA), at 5 min intervals for a total of 45 min, at 515 nm. The percentage of radical scavenging activity (%RSA) was calculated using the following equation: % RSA = ((AC − AS)/AC) × 100, where AC is the absorbance of control and AS is the absorbance of samples taken at 35 min. The results were expressed in EC50 (effective concentration for 50% capture of the radicals) determined by non-linear regression using GraphPad Prism, version 6.0."}, "[5]": {"experiment": "β-Carotene/linoleic acid co-oxidation assay", "procedure": "The evaluation of the antioxidant activity using the β-carotene/linoleic acid co-oxidation system was performed according to Duarte-Almeida et al., with adaptations. The extracts were solubilized in MeOH (2.2 mg/mL) and further diluted to concentrations ranging from 3.125 to 200 μg/mL. An aliquot of 25 μL of sample solutions were added in the 96-well microplate. 25 mg of linoleic acid and 100 mg Tween 20 (Sigma, St. Louis, MO, USA) were added to a round-bottom flask containing 1 mL of a β-carotene solution (1 mg/mL, Sigma, St. Louis, MO, USA) in chloroform. The latter was removed in a rotatory evaporator and, then, 50 mL of aerated water was added to the flask, affording the β-carotene emulsion. Portions of 250 μL of the freshly prepared emulsion were added to the wells corresponding to the odd columns of a microplate. […] Readings were performed immediately at 470 nm. After the first reading, the microplate was incubated at 45 °C and the kinetic cycle was performed with readings at 15 min intervals for a total of 120 min. The antioxidant activity was expressed as % of inhibition of lipid peroxidation (%I), using the formula (I% = Ac (initial abs − Final abs) − Aam (final abs − Initial abs)/Ac × 100). Assays were performed in triplicate and IC50 values were determined by non-linear regression using GraphPad Prism, version 6.0 (GraphPad Software, San Diego, CA, USA)."}, "AChE [6]": {"system": "AChE", "parameters": "method as in Itoh et al. [85]", "conditions": "3 mg/kg; ref Itoh et al. [85]; cited from earlier work"}, "AChE [7]": {"system": "AChE", "parameters": "method as in El-Hassan et al. [86]", "conditions": "ref El-Hassan et al. [86]; cited from earlier work"}}, "data": [{"smiles": "CNC(=O)Oc1ccc2c(c1)[C@]1(C)CCN(C)[C@@H]1N2C", "note": "[Physostigmine, reference compound]", "values": [{"measurement": "Inhibition of AChE TLC", "setting": "[1]", "result": "++++"}, {"measurement": "inhibition at 400 µg/mL", "setting": "[2]", "result": "89.8 ± 1.16", "unit": "%"}]}, {"smiles": "CCCOC(=O)c1cc(O)c(O)c(O)c1", "note": "[Propylgalate, propylgalate, reference compound]", "values": [{"measurement": "Antioxidant Activity (IC50-µg/mL) TBARS Assay", "setting": "[3]", "result": "<20", "unit": "µg/mL"}]}, {"smiles": "Oc1cccc(O)c1O", "note": "[Pyrogallol, pyrogallol, reference compound]", "values": [{"measurement": "Antioxidant Activity (IC50-µg/mL) DPPH Radical Sequestration", "setting": "[4]", "result": "1.14 ± 0.15", "unit": "µg/mL"}]}, {"smiles": "O=c1c(O)c(-c2ccc(O)c(O)c2)oc2cc(O)cc(O)c12", "note": "[Quercetin, quercetin, reference compound]", "values": [{"measurement": "Antioxidant Activity (IC50-µg/mL) β-Carotene/linoleic Acid", "setting": "[5]", "result": "0.3 ± 0.1", "unit": "µg/mL"}]}, {"smiles": "COc1cc2c(c(OC)c1OC)-c1c(cc(OC)c(OC)c1OC)C[C@](C)(O)[C@@H](C)C2", "note": "[Schisandrin]", "values": [{"measurement": "activity in vivo", "setting": "AChE [6]", "result": "active"}]}, {"smiles": "COc1cc([C@H]2OC[C@H]3[C@@H]2CO[C@@H]3c2cc(OC)c(O)c(OC)c2)cc(OC)c1O", "note": "[Syringaresinol]", "values": [{"measurement": "IC50 AChE inhibition in vitro", "setting": "AChE [7]", "result": 200, "unit": "µg/mL"}]}]}
